Like-named read-outs stand apart in the source and are kept apart here. Some results are limits rather than exact numbers.

In one data set the test system is Hepatitis B Virus (HBV). Nature of the data set: Anti-HBV activity in HBV producer cell line HepG2 2.2.15: reduction of extracellular virion DNA and intracellular replicative intermediates. The format is cell-based. Here is the method: The human HBV producer cell line of HepG2, 2.2.15, described and characterized by Sells et al., PNAS 84:1005, 1987 and J. Virol. […] This cell line was utilized in vitro to identify compounds with anti-HBV activity.
Monolayer cultures were treated with 1-100µM of the active compound 1-(β-D-arabinofuranosyl)-5-prop-1-ynyluracil, for ten days. Supernatant media containing extracellular virion DNA (Dane particles) were harvested on day ten, treated with proteinase K (1 mg/mL) and sodium dodecyl sulfate (1%), and incubated at 50°C for one hour. DNA was extracted with equal volumes of phenol followed by chloroform and then precipitated by ammonium acetate and propanol. The DNA precipitate was dissolved and collected on nitrocellulose using the procedure of Schleicher and Schuell (S & S, 10 Optical Ave., Keene, NH 03431, Publication #700, 1987), and treated as described by Southern, J. Mol. Biol. 98:503, 1975. Cells were harvested, and the intracellular DNA. was obtained after cell lysis with guanidine isothiocyanate. The intracellular DNA was handled in the same manner as the extracellular DNA. After precipitation by ammonium acetate and propanol, the intracellular DNA precipitate was dissolved, cut by restriction endonuclease, Hind III, applied to agarose gel and then treated as described by Southern to determine the quantity of replicative intermediate forms. The antiviral effect of the drug was determined by measuring a reduction of the amount of Dane particles extruded into the culture medium (extracellular DNA) and a similar decrease in tie intracellular replicative intermediates (intracellular replicative form).

Data set [1] can be described thus: Cell toxicity, cell growth inhibition assay (MTT uptake). The format is cell-based. The settings on record: monkey, Vero cells, 50% inhibition of cell viability at 96 hours, read-out: cell toxicity (CCID₅₀). As for the experimental part: Cell toxicity is assessed in a cell growth inhibition assay. Subconfluent cultures of Vero cells grown on 96-well microtiter dishes are exposed to different dilutions of drug, and cell viability determined daily on replicate cultures using uptake of a tetrazolium dye (MTT). The concentration requried for a 50% inhibition of cell viability at 96 hours is termed CCID₅₀.

Where [2] appears, read: HepG2 2.2.15, 240 h, Expt. 5, HepG2 2.2.15 cells, ten days, read-out: Percent (Reduction) Inhibition of Hepatitus B Virus DNA in Extracellular Media.
[3] abbreviates: HepG2 2.2.15, 240 h, Expt. 6, HepG2 2.2.15 cells, ten days, read-out: Percent (Reduction) Inhibition of Hepatitus B Virus DNA in Extracellular Media.

`CC#Cc1cn([C@@H]2O[C@H](CO)[C@@H](O)[C@@H]2O)c(=O)[nH]c1=O` [1-(β-D-Arabinofuranosyl)-5-prop-1-ynyluracil]: the “Percent (Reduction) Inhibition of Hepatitus B Virus DNA in Extracellular Media” value in the data set on Hepatitis B Virus (HBV) (Expt. 5, 11μM, HepG2 2.2.15 cells, ten days) is given as “N.I”; with Hepatitis B Virus (HBV) (Expt. 6, 37μM, HepG2 2.2.15 cells, ten days), “N.I”. In addition, the inhibition at 33 µM in the data set with Hepatitis B Virus (HBV) (setting [2]) is 87.4%; in the data set on Hepatitis B Virus (HBV) (setting [3]) it was 89.1%. In the data set with Hepatitis B Virus (HBV) (HepG2 2.2.15, 240 h, Expt. 5, 37μM, HepG2 2.2.15 cells, ten days, read-out: Percent (Reduction) Inhibition of Hepatitus B Virus DNA in Extracellular Media), the inhibition at 37 µM came to 55.3%. Also, the inhibition at 100 µM in the data set with Hepatitis B Virus (HBV) (setting [2]) was found to be 94.4%; in the data set with Hepatitis B Virus (HBV) (setting [3]), 98.5%; in the data set on Hepatitis B Virus (HBV) (Hepatitis B virus, HepG2 2.2.15, 240 h, Expt. 5, value in parentheses, read-out: % reduction in intracellular hepatitis B virus DNA replicative form) it was 88%; with Hepatitis B Virus (HBV) (Hepatitis B virus, HepG2 2.2.15, 240 h, Expt. 6, value in parentheses, read-out: % reduction in intracellular hepatitis B virus DNA replicative form), 95.3%; with Hepatitis B Virus (HBV) (Hepatitis B virus, HepG2 2.2.15, Expt.7, read-out: Percent Inhibition of Hepatitis B Specific Intracellular Replicative Form (RF) DNA), 42%. For the same compound, the inhibition at 11 µM with Hepatitis B Virus (HBV) (HepG2 2.2.15, 240 h, Expt. 6, 11μM, HepG2 2.2.15 cells, ten days, read-out: Percent (Reduction) Inhibition of Hepatitus B Virus DNA in Extracellular Media) was 71.5%. The inhibition at 1 µM with Hepatitis B Virus (HBV) (Hepatitis B virus, HepG2 2.2.15, Expt.7, 1μM, read-out: Percent Inhibition of Hepatitis B Specific Intracellular Replicative Form (RF) DNA) is 35%. The inhibition at 10 µM in the data set on Hepatitis B Virus (HBV) (Hepatitis B virus, HepG2 2.2.15, Expt.7, 10μM, read-out: Percent Inhibition of Hepatitis B Specific Intracellular Replicative Form (RF) DNA) turned out to be 33%. Moreover, the CC50 at 96 h in data set [1] was > 500 µM.

The record behind these values is patent EP0461815A1, “Anti-HBV pyrimidine nucleoside” (THE WELLCOME FOUNDATION LIMITED, priority 1990, dated 1991).
